From PMC9851200, “Multiparameter phenotypic screening for endogenous TFEB and TFE3 translocation identifies novel chemical series modulating lysosome function” (Autophagy, 2022)

What was measured:
Type in all cases: binding
[1] = molecular target: kinases (KINOMEscan panel) (Homo sapiens, UniProt P00519, E255K); conditions: NEW KINOMEscan
[2] = molecular target: kinases (KINOMEscan panel) (Homo sapiens, UniProt P00519, Q252H); conditions: NEW KINOMEscan; for KINOMEscan ABL1(Q252H)-nonphosphorylated: kinase ABL1(Q252H)-nonphosphorylated; for KINOMEscan ABL1(Q252H)-phosphorylated: kinase ABL1(Q252H)-phosphorylated
[3] = molecular target: kinases (KINOMEscan panel) (Homo sapiens, UniProt P10721); conditions: NEW KINOMEscan
[4] = molecular target: kinases (KINOMEscan panel) (Homo sapiens, UniProt P10721, T670I/V559D); conditions: NEW KINOMEscan
[5] = molecular target: kinases (KINOMEscan panel) (Homo sapiens, UniProt P23458); conditions: JAK1(JH1domain-catalytic); NEW KINOMEscan
[6] = molecular target: kinases (KINOMEscan panel) (Homo sapiens, UniProt P36888, K663Q); conditions: kinase FLT3(K663Q); NEW KINOMEscan
[7] = molecular target: kinases (KINOMEscan panel) (Homo sapiens, UniProt P42338); conditions: PIK3CB; NEW KINOMEscan
[8] = molecular target: T1, kinases (KINOMEscan panel) (Homo sapiens, UniProt P57058); conditions: kinase HUNK; NEW KINOMEscan
T1 sequence (P57058 1-714): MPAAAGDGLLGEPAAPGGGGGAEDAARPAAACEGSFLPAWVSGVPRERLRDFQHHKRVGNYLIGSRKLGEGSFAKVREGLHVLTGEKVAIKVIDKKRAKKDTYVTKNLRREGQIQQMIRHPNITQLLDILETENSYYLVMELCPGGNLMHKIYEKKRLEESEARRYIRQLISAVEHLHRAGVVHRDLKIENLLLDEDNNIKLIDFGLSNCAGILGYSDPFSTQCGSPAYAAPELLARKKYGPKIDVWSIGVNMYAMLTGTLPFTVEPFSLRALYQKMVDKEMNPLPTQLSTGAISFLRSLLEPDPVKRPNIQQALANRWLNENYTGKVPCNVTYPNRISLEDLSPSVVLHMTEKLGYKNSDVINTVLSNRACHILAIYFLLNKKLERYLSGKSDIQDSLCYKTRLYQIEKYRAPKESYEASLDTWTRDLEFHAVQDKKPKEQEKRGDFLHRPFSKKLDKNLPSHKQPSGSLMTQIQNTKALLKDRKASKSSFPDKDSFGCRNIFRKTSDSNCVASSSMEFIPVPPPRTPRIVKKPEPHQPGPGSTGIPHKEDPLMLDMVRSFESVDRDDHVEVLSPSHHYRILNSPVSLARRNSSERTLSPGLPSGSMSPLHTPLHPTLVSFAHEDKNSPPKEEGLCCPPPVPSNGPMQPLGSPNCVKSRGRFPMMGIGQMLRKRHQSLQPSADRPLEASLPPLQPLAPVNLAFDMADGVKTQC

[9] = molecular target: kinases (KINOMEscan panel) (Homo sapiens, UniProt Q00532); conditions: CDKL1; NEW KINOMEscan
[10] = molecular target: kinases (KINOMEscan panel) (Homo sapiens, UniProt Q07912); conditions: TNK2; NEW KINOMEscan
[11] = molecular target: kinases (KINOMEscan panel) (Homo sapiens, UniProt Q13233); conditions: MAP3K1; NEW KINOMEscan
[12] = molecular target: kinases (KINOMEscan panel) (Homo sapiens, UniProt Q14012); conditions: CAMK1; NEW KINOMEscan
[13] = molecular target: T2, kinases (KINOMEscan panel) (Homo sapiens, UniProt Q8N752); conditions: CSNK1A1L; NEW KINOMEscan
T2 sequence (Q8N752 1-337): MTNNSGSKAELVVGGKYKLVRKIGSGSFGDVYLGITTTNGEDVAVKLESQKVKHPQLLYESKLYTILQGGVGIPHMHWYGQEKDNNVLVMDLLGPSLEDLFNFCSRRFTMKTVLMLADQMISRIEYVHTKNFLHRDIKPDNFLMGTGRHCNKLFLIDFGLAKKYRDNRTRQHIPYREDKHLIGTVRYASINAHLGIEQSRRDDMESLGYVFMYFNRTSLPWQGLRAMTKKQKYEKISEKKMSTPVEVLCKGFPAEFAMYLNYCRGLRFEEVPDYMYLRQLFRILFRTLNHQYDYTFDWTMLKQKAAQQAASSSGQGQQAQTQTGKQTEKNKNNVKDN

[14] = molecular target: kinases (KINOMEscan panel) (Homo sapiens, UniProt Q96Q40)
[15] = molecular target: kinases (KINOMEscan panel) (Homo sapiens, UniProt Q9HCP0); conditions: kinase CSNK1G1; NEW KINOMEscan
[16] = molecular target: T3, kinases (KINOMEscan panel) (Homo sapiens, UniProt Q9NWZ3); conditions: IRAK4; NEW KINOMEscan
T3 sequence (Q9NWZ3 1-460): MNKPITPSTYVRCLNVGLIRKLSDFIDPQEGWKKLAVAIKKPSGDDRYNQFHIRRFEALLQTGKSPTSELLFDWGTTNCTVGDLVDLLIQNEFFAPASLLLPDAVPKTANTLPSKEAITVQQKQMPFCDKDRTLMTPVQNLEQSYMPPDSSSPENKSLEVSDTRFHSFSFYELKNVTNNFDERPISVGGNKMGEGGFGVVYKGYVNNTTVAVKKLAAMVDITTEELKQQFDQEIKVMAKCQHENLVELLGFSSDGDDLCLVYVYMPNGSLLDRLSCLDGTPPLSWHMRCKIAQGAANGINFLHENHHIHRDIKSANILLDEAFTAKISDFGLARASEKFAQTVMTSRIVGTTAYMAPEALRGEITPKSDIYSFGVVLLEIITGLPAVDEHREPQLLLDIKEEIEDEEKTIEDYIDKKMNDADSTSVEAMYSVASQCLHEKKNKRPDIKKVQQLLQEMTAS

[17] = molecular target: kinases (KINOMEscan panel) (Homo sapiens, UniProt Q9P286); conditions: kinase PAK5; NEW KINOMEscan
[18] = molecular target: kinases (KINOMEscan panel) (Homo sapiens, UniProt Q9Y3S1); conditions: WNK2; NEW KINOMEscan
kinases (KINOMEscan panel) (Homo sapiens, UniProt Q9Y3S1), sequence (Q9Y3S1 whole entry): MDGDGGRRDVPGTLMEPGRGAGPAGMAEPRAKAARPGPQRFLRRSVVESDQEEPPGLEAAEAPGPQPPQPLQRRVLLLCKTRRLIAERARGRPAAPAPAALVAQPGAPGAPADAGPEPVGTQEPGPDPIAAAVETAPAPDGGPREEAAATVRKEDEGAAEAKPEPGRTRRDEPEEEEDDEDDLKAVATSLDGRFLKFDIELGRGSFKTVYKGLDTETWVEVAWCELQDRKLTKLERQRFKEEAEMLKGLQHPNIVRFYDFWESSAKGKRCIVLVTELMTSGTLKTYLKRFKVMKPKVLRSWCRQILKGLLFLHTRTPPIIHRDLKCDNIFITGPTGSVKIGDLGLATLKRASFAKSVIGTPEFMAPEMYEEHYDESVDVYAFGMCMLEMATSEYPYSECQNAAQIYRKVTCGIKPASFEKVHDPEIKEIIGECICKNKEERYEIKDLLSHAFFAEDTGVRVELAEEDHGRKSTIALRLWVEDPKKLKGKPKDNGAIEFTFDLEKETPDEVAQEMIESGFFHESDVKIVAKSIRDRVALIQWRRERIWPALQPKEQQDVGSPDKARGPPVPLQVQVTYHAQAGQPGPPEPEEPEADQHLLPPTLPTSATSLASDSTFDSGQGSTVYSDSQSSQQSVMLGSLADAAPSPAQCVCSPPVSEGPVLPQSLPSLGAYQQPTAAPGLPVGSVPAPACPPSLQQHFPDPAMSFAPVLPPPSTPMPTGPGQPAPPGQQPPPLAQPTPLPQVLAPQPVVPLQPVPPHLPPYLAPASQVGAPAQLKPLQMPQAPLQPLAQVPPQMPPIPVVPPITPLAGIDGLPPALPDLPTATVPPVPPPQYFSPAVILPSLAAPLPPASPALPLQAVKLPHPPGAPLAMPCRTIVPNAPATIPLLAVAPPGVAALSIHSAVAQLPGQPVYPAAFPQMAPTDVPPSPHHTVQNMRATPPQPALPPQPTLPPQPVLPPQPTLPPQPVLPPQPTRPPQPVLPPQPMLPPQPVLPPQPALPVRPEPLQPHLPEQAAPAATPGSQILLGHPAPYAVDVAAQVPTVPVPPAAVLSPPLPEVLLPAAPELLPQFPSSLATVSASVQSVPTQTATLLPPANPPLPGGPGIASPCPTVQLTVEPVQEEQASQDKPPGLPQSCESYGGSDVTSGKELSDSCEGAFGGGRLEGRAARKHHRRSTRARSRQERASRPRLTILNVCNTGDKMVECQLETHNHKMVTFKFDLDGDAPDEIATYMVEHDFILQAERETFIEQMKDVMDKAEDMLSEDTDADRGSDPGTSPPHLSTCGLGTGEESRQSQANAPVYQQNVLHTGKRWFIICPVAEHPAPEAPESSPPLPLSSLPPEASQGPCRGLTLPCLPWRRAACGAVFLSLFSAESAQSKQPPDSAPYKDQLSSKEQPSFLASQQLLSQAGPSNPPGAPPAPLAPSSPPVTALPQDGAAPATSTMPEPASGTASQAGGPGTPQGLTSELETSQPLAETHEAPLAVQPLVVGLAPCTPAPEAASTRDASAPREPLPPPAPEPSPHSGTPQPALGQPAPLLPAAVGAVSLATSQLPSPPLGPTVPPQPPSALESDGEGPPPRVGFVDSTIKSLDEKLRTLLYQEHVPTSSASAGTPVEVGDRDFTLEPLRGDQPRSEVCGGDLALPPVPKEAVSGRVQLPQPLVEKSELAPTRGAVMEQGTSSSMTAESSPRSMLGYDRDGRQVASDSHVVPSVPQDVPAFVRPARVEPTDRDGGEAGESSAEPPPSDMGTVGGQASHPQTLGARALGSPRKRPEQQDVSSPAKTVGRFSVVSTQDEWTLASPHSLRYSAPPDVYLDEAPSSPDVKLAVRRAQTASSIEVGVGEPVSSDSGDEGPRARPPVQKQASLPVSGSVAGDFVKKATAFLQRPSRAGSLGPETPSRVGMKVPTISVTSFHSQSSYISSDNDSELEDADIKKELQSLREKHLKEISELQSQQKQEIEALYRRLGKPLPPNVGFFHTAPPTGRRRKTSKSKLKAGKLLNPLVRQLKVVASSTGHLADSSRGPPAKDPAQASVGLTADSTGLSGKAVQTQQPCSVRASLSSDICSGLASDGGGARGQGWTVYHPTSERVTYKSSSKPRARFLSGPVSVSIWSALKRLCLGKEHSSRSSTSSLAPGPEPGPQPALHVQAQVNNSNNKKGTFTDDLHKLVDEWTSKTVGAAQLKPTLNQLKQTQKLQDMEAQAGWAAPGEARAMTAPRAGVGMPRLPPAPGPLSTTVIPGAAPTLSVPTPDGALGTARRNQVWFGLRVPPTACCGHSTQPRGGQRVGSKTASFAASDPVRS

kinases (KINOMEscan panel) (Homo sapiens, UniProt P10721), sequence (P10721 26-976): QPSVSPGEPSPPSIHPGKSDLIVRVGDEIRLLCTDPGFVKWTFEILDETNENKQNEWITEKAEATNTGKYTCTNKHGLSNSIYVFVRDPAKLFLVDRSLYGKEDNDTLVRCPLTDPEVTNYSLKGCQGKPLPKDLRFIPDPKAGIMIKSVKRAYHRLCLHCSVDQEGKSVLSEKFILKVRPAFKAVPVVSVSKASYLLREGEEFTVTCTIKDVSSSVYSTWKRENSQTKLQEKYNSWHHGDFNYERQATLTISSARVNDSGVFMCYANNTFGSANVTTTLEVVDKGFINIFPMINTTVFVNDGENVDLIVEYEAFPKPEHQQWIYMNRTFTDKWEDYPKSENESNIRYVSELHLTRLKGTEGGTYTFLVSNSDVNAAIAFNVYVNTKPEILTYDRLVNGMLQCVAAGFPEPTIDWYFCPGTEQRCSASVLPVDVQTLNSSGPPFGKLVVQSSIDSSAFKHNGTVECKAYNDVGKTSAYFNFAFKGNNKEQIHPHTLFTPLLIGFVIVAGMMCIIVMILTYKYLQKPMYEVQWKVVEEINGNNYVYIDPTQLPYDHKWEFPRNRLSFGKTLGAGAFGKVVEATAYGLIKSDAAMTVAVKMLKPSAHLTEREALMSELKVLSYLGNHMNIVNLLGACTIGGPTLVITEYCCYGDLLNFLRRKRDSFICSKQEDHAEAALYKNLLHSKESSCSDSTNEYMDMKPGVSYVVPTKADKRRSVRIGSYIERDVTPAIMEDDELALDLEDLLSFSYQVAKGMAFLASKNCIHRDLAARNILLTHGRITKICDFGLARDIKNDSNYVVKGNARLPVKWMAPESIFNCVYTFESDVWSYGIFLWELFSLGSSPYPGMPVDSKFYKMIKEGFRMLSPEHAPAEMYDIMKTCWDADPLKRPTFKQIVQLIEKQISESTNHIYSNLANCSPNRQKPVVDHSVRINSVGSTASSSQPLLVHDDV
kinases (KINOMEscan panel) (Homo sapiens, UniProt Q00532), sequence (Q00532 whole entry): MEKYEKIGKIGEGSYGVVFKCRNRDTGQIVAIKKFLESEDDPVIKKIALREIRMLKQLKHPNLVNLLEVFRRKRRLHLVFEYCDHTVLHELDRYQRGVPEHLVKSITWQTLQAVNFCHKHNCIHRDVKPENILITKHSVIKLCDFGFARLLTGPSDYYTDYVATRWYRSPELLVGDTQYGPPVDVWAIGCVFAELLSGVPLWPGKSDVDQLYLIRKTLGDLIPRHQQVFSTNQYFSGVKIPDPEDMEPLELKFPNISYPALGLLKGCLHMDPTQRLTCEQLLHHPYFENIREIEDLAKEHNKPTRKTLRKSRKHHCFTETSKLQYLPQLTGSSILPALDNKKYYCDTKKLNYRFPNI
kinases (KINOMEscan panel) (Homo sapiens, UniProt Q96Q40), sequence (Q96Q40 whole entry): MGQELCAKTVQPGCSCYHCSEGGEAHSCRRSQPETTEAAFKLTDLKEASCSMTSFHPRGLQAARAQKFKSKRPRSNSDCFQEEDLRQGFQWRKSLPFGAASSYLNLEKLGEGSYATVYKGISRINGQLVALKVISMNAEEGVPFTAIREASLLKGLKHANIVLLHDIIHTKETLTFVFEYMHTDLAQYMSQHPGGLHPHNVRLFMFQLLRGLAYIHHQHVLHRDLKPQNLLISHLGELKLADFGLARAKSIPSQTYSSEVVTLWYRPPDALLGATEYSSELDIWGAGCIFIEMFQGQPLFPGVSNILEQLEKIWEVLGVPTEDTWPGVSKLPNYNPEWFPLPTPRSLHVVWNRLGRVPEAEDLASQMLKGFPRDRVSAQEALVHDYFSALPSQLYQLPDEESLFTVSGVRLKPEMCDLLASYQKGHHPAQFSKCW
kinases (KINOMEscan panel) (Homo sapiens, UniProt Q9HCP0), sequence (Q9HCP0 whole entry): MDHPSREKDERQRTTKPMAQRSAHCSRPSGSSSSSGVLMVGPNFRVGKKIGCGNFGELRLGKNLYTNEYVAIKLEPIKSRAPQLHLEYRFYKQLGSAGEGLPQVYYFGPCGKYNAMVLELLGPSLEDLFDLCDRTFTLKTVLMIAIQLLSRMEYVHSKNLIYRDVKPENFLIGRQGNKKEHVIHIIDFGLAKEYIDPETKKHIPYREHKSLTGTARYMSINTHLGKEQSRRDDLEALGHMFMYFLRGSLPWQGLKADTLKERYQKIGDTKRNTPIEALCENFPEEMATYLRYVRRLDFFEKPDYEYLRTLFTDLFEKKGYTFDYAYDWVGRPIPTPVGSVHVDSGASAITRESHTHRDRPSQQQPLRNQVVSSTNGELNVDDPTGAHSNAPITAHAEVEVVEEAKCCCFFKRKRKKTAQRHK
kinases (KINOMEscan panel) (Homo sapiens, UniProt P10721, T670I/V559D), sequence (P10721 26-976 V559D/T670I): as the sequence (P10721 26-976) above, with V534D, T645I counted along it
kinases (KINOMEscan panel) (Homo sapiens, UniProt Q14012), sequence (Q14012 whole entry): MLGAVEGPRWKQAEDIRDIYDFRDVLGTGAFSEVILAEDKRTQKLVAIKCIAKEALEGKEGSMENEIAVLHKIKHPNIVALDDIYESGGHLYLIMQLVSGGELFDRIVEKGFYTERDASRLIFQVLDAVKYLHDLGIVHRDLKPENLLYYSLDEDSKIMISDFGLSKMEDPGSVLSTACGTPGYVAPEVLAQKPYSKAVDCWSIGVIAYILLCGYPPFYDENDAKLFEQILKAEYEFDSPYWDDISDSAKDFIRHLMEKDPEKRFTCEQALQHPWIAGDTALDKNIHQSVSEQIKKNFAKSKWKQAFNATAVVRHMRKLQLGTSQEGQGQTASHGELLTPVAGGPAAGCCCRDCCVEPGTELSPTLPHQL

SMILES	KINOMEscan ABL1(E255K)-phosphorylated [1]	KINOMEscan ABL1(Q252H)-nonphosphorylated [2]	KINOMEscan ABL1(Q252H)-phosphorylated [2]	KINOMEscan KIT-autoinhibited [3]	KINOMEscan KIT [3]	KINOMEscan KIT(V559D,T670I) [4]	KINOMEscan JAK1(JH1domain-catalytic) [5]	KINOMEscan FLT3(K663Q) [6]	KINOMEscan PIK3CB [7]	KINOMEscan HUNK [8]	KINOMEscan CDKL1 [9]	KINOMEscan TNK2 [10]	KINOMEscan MAP3K1 [11]	KINOMEscan CAMK1 [12]	KINOMEscan CSNK1A1L [13]	KINOMEscan CDK15/PFTAIRE2 [14]	KINOMEscan CSNK1G1 [15]	KINOMEscan IRAK4 [16]	KINOMEscan PAK5 [17]	KINOMEscan WNK2 [18]
Cc1cccc(-c2nc(Nc3ccc4nn(C)cc4c3)c3ccccc3n2)n1 [NK167]	15	0	0	1	8	13	0	0	0	0	44	0	0	0	0	0	0	0	0	0
Cc1cccc(-c2nc(N(C)c3ccc4ncsc4c3)c3ccccc3n2)n1 [NK-161]	22	0	0	0	5	14	0	0	0	4	36	0	0	0	12	0	0	0	2	0
